According to patent US11672766B2, “Therapeutic cationic peptides and unimolecular nanoparticles for efficient delivery thereof” (Wisconsin Alumni Research Foundation, priority 2017, dated 2023):
Where no end group is shown, it is not given here. [ ]: non-standard residue; d: D form. Arg(Me2a) = CN(C)C(=N)NCCC[C@H](N)C(=O)O

Columns and labels:
[1] = molecular target: T1, histone H3 methylation by CARM1 (Homo sapiens, UniProt Q86X55); test: In vitro methylation assay of control substrate histone H3 by CARM1; type: biochemical; conditions: FBP 100 μM or TEPP-46 1 μM
T1 construct: HaloTag (cleaved yes); made in house; host or cells: HEK293T (transient transfection)
T1 sequence (Q86X55 1-608): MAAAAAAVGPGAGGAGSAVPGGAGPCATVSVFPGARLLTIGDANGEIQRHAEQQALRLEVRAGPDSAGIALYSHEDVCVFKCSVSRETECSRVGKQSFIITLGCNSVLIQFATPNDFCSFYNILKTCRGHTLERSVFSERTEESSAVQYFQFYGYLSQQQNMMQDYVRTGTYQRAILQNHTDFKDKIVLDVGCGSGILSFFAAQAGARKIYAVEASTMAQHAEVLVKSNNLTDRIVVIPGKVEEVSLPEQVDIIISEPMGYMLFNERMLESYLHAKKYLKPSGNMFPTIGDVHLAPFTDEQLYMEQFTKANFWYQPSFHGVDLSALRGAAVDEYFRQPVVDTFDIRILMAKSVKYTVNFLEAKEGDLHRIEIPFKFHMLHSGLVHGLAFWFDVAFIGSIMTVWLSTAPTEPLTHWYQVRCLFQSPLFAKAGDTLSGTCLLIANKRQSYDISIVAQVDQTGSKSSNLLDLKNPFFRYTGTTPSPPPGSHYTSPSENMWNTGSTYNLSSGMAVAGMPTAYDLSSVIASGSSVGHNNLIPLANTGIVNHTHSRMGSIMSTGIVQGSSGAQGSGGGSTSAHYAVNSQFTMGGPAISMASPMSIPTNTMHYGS
Experimental: (§1) In vitro methylation assay was performed as previously described (Wang et al., 2014). Purified histones or purified substrate proteins were mixed with the protein arginine methyltransferases (PRMTs) in the presence of ^3H-SAM. [^3H]-labeled substrates were resolved by SDS-PAGE and detected by autoradiography.

[2] = molecular target: T2, CARM1-mediated methylation of PKM2 (Homo sapiens, UniProt Q86X55); test: In vitro methylation assay of PKM2 by CARM1 (3H-SAM, autoradiography); type: biochemical; conditions: for PKM2 methylation by CARM1: FBP 100 μM or TEPP-46 1 μM; for CARM1-mediated methylation of PKM2: free peptide or peptide encapsulated in UMNP
T2 construct: HaloTag (cleaved yes); made in house; host or cells: CARM1: HEK293T (transient)
T2 sequence (Q86X55 1-608): T1 sequence (Q86X55 1-608)
Experimental: as §1
Human PRMT1-8 cDNAs were cloned into pFN21K HaloTag CMV Flexi Vector (Promega) (Wang et al., 2014). These plasmids were transiently transfected into HEK293T cells for 36 hours. The cells were harvested in binding buffer (HEPES 50 mM, NaCl 150 mM, NP40 0.005%, 0.5 mM EDTA, pH 7.5) and sonicated at 35% power (amplitude) with 10 s on, 30 s off, 4-6 cycles on ice, and then centrifuged and collected the supernatant. The supernatant was incubated with HaloLink resin (Promega) overnight at 4° C. The beads were washed with binding buffer twice and then incubated with 1M urea in binding buffer for 20 min at room temperature. After washing the beads with binding buffer twice, the proteins were eluted with 20 μg/mL TEV in cleavage buffer (DTT 1 mM in binding buffer). For purification of Flag-tagged proteins, the plasmids were transiently transfected into HEK293T cells for 36 hours. The cells were harvested in lysis buffer on ice for 30 min, and then centrifuged and collected the supernatant. Flag M2 Affinity Gel was added into the supernatant and incubated for 2 hours, and then the Gel was washed with PBS four times. The proteins were eluted by 150 μg/mL 3× Flag peptide in 0.5 M Tris HCl and 1M NaCl pH 7.5. For His-tagged or GST-tagged proteins purification, PKM1 and PKM2 cDNA were inserted pET-21a (+) or pGEX-2T plasmid. The plasmids were then transfected into E. coli BL-21 competent cells. Protein expression was induced by the presence of 0.5 mM IPTG overnight at 20° C. After centrifugation, pellet was resuspended in sonication buffer (1% Triton X-100, 1 mM EDTA, 1 mM DTT in PBS) and sonicated at 50% power (amplitude) with 30 s on, 30 s off, 10 cycles on ice or until the suspension became clear. After centrifugation, the supernatant was incubated with Ni-NTA Agarose or Glutathione Agarose Resin for 2 hours at room temperature. For His-tagged proteins, Beads were washed with PBS twice, then washed with 10 mM imidazole in elution buffer (1% Triton X-100, 0.1% glycerol in PBS) once. The His-tagged proteins were eluted with 250 mM imidazole. For GST-tagged proteins, beads were washed with PBS four times and eluted with glutathione elution buffer (50 mM Glutathione, 50 mM Tris HCl, pH 8.0, 100 mM NaCl, and 1 mM EDTA). The eluted proteins were dialyzed with PBS containing 0.1% glycerol.

IP3R3 = test: Western blot analysis of IP3R3 protein levels in MCF7 cells; type: cell-based; conditions: parental MCF7, TEPP-46 vs DMSO
MCF7 cells [3] = test: Lactate production normalized to cell numbers; type: cell-based; conditions: TEPP-46 vs DMSO, DCA treated
MDA-MB-231 cells [4] = test: Lactate production normalized to cell numbers; type: cell-based, human; conditions: TEPP-46 vs DMSO, DCA treated
MCF7 cells [5] = test: Oxygen consumption rate (OCR), Seahorse XF96; type: cell-based; conditions: TEPP-46 vs DMSO, DCA treated
Experimental: (§2) The OCR was measured in an XF96 extracellular analyzer (Seahorse Bioscience). 2×10^4 cells per well were seeded into the 96-well plate and incubated in DMEM media with 10% FBS at 37° C. overnight. Next day, the media was changed to analysis media containing 10 mM glucose. The cells were incubated in a CO2-free incubator at 37° C. for 1 hour. Cells were sequentially exposed to oligomycin ([…] FCCP (0.5 μM) and rotenone (0.5 μM). Each point in traces represent the average of measurement from six different wells.

MDA-MB-231 cells [6] = test: Oxygen consumption rate (OCR), Seahorse XF96; type: cell-based, human; conditions: TEPP-46 vs DMSO, DCA treated
Experimental: as §2

methyl-PKM2 = test: Western blot analysis of methyl-PKM2 in MCF7 cells; type: cell-based; conditions: TEPP-46 vs DMSO
Experimental: Methyl-PKM2 specific anti-peptide antibody was prepared by Genemed Synthesis Inc., TX, using standard methods of peptide synthesis. The KLH-conjugated PKM2 peptide RYR(as)PR(as)[…] (SEQ ID NO: 58), with R445 and R447 asymmetrically dimethylated was synthesized. The peptide corresponding to human PKM2 amino acids 443-454, was used to immunize rabbits. To purify the di-me-PKM2 specific antibody, 10 mg dimethyl peptide (column A) and 10 mg control peptide (non-methyl) (column B) were coupled separately to cyanogen bromide activated agarose beads. 100 ml of antisera was then incubated with the peptide-agarose column A. The unbound antiserum was washed with 1×PBS buffer. After several washes, the antibody was eluted with 0.1 M glycine, pH 2.5; neutralized with 1M […] Tris, pH 8.0. The antibody was stabilized with 0.1% BSA [Elution A]. Elution A was then incubated with column B and then same procedure was followed for elution. The flow through from column B was the dimethyl-specific antibody (methyl-PKM2). The antisera and purified antibody were then tested by enzyme-linked immunosorbent assay (ELISA).

[7] = system: MCF7 cells (parental, PKM2 KO, PKM2wt/shPKM1, PKM2mut/shPKM1); test: Cell death by PI staining after IP3Rs inhibition; type: cell-based; conditions: MCF7 lines, 3.5 μM XeB, 24 hours
Experimental: (§3) Cell apoptosis and death assays were based on the previously described method. See Cardenas, C., et al., “Selective Vulnerability of Cancer Cells by Inhibition of Ca(2+) Transfer from Endoplasmic Reticulum to Mitochondria,” Cell Rep 14, 2313-2324 (2016). Briefly, cell apoptosis was determined by annexin V/APC and propidium iodide (PI) staining. Cell death was determined by PI staining using flow cytometry.

[8] = system: MDA-MB-231 cells (parental, PKM2 KO, PKM2wt/shPKM1, PKM2mut/shPKM1); test: Cell death by PI staining after IP3Rs inhibition; type: cell-based, human; conditions: MDA-MB-231 lines, 5 μM XeB, 24 hours
Experimental: as §3

[9] = system: MDA-MB-231 PKM2mut/shPKM1 cells; test: Cell migration of ROS highly producing cells; type: cell-based, human
Experimental: (§4) Cell migration assay was performed as previously described (Wang et al., 2014) using 8.0 μm pore size Transwell inserts (Costar Corp., Cambridge, Mass.). Briefly, 1×10^5 cells in 100 μL serum free media were added into the upper chamber, 500 μL culture media with 20% FBS was in the lower well. After 12 hours culture, removed the cells on the upper surface of the membrane and fixed the migrant cells attached to the lower surface with 3.7% formaldehyde in culture media at 37° C. for 15 min, and then stained for 20 min with 0.05% crystal violet.

[10] = system: MCF7 PKM2mut/shPKM1, MDA-MB-231 PKM2mut/shPKM1, MCF7 CARM1 KO cells; test: MTT cell growth in ROS highly producing cells; type: cell-based; conditions: PKM2 KO, PKM2 KO expressing PKM2mut and CARM1 KO cells
Experimental: (§5) For quantitative proliferation assays, 1000 cells per well were seeded onto 96-well plates. 3-(4,5-dimethylthiazol-2-yl)-2,5-diphenyltetrazolium bromide (MTT) solution (20 μL per well, 4 mg/mL) was added into the wells and incubated 4 hours. After discarding the supernatant, 200 μL DMSO was added and the absorbance value (optical density) was measured at 490 nm on a Victor X5 microplate reader (Perkin Elmer, Waltham, Mass.). In the next 3 days, the absorbance value was measured every day. For 5-Ethynyl-2′-deoxyuridine (EdU) incorporation assay, 3×10^5 cells were seeded into 6-well plate and incubated 10 μM EdU for 1 hour, followed by the procedures described in the Click-iT® EdU cytometry assay kit according to the manufacturer's instructions. Cells were then analyzed on BD LSRII. For clonogenicity assay, 1000 viable transfected cells were placed in six-well plates and maintained in complete medium for 2 weeks. Colonies were washed with PBS and fixed with 3.7% formaldehyde for 15 min at room temperature, and then stained for 20 min with 0.05% crystal violet.

MCF7 cells [11] = test: MTT cell proliferation assay; type: cell-based; conditions: peptides delivered by UMNP (FIG. 14E)
Experimental: as §5

MDA-MB-231 cells [12] = test: Transwell cell migration assay; type: cell-based, human; conditions: peptides delivered by UMNP (FIG. 14F)
Experimental: as §4

O=P(O)(O)OC[C@H]1O[C@](O)(COP(=O)(O)O)[C@@H](O)[C@@H]1O [FBP]
histone H3 methylation by CARM1 [1]: neither TEPP-46 nor FBP treatment affected histone H3 methylation by CARM1
PKM2 methylation by CARM1 [2]: blockage of PKM2 methylation by CARM1

Cn1c2cc([S+](C)[O-])sc2c2cnn(Cc3cccc(N)c3)c(=O)c21 (centres unmarked) [TEPP-46]
IP3R3 expression (IP3R3): elevated IP3R3 expression
lactate production (MCF7 cells [3]): decreasing lactate production
histone H3 methylation by CARM1 [1]: neither TEPP-46 nor FBP treatment affected histone H3 methylation by CARM1
lactate production (MDA-MB-231 cells [4]): decreasing lactate production
OCR (MCF7 cells [5]): significantly increased OCR
OCR (MDA-MB-231 cells [6]): significantly increased OCR
methyl-PKM2 level in cells (methyl-PKM2): blocking its methylation
PKM2 methylation by CARM1 [2]: blockage of PKM2 methylation by CARM1

C[C@@H]1CN2CCC[C@H]3CCCCCC[C@H]4CCN5CCC[C@@](O)(CCCCCC[C@@H]1O[C@H]32)[C@H]5O4 [XeB, Xestospongin B]
cell death (vulnerability to IP3Rs inhibition) [7]: PKM2 KO or PKM2^mut cells are more vulnerable to XeB than parental and PKM2^wt cells
cell death (vulnerability to IP3Rs inhibition) [8]: PKM2 KO or PKM2^mut cells are more vulnerable to XeB than parental and PKM2^wt cells

CC1(C)CC(NC(=O)C[P+](c2ccccc2)(c2ccccc2)c2ccccc2)CC(C)(C)N1[O] [mitTEMPO]
cell migration [9]: did not alter cell proliferation and migration
cell proliferation [10]: did not alter cell proliferation and migration

RYRPRAPIIAVT [non-methyl-peptide]
proliferation of MCF7 cells (MTT) (MCF7 cells [11]): inhibited proliferation of the MCF7 cells
migration of MDA-MB-231 cells (transwell) (MDA-MB-231 cells [12]): inhibited proliferation of the MCF7 cells (FIG. 14E) and migration of MDA-MB-231 cells
CARM1-mediated methylation of PKM2 [2]: abrogated CARM1-mediated methylation of PKM2

methyl-peptide: negative control: corresponding peptide with R445 and R447 asymmetrically di-methylated (RY[Arg(Me2a)]P[Arg(Me2a)]APIIAVT; also: R445 and R447 asymmetrically di-methylated)
proliferation of MCF7 cells (MTT) (MCF7 cells [11]): but not methyl-peptide, inhibited proliferation of the MCF7 cells
migration of MDA-MB-231 cells (transwell) (MDA-MB-231 cells [12]): but not methyl-peptide, inhibited proliferation of the MCF7 cells (FIG. 14E) and migration of MDA-MB-231 cells
CARM1-mediated methylation of PKM2 [2]: but not the control methyl-peptide, abrogated CARM1-mediated methylation of PKM2
